Results on 13 compounds are retold here after ChEMBL document CHEMBL2029320 (J Med Chem, 2012).

Activity calls are given as the source filed them. The calls are words filed in the database; no cut-off is given here. Residues, ends and D or L forms follow the SMILES beside them. Bounds are passed on as bounds.

The target in one assay is T1, Relaxin-3 receptor 1 (Homo sapiens, UniProt Q9NSD7).
T1 sequence (Q9NSD7 whole entry): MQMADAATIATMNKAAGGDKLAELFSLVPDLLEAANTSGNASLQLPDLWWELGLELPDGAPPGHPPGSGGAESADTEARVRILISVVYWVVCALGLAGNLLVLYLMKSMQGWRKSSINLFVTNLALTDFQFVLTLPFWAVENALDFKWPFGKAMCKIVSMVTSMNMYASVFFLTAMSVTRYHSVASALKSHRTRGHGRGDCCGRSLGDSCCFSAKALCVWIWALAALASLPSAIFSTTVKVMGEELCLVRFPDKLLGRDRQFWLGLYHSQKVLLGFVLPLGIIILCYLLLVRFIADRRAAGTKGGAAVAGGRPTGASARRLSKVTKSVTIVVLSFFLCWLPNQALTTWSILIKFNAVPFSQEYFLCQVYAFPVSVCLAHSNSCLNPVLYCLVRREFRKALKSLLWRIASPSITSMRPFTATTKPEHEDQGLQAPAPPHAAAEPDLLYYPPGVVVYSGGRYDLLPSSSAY
Description: Displacement of europium-labelled H3 relaxin-B chain/INSL-5 chain from RXFP3 expressed in CHO-K1 cells. It is filed as cell-based.

The next assay has as its target Relaxin-3 receptor 2 (Homo sapiens, UniProt Q8TDU9). In words: Agonist activity at RXFP4 expressed in CHO-K1 cells assessed as inhibition of forskolin-induced cAMP accumulation after 6 hrs by beta galactosidase reporter gene assay. It is filed as functional, cell-based.
The target in another assay is T2, Relaxin receptor 1 (Homo sapiens, UniProt Q9HBX9).
T2 sequence (Q9HBX9 whole entry): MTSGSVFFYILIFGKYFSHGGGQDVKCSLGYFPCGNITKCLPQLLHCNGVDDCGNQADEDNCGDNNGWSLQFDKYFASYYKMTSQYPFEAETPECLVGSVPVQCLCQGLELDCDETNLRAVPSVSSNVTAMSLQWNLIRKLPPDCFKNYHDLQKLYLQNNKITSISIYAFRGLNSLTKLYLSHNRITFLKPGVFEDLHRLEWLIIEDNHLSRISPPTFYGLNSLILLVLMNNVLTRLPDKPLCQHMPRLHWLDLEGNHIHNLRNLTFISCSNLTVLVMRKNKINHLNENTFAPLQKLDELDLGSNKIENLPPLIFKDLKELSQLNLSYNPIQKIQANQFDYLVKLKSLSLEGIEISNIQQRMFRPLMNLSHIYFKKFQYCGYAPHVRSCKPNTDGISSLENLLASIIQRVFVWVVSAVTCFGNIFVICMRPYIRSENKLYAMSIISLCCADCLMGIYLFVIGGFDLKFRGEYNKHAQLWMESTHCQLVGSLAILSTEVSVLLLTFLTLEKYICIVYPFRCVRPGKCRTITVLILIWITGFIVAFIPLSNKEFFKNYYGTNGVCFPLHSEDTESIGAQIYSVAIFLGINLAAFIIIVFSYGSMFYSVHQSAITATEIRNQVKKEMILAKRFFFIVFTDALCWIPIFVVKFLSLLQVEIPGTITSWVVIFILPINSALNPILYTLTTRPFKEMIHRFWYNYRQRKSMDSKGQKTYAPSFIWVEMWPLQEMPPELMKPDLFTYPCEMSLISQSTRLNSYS
Description: Displacement of europium-labelled H2 relaxin from RXFP1 expressed in HEK-293T cells. In kind it is cell-based.

Assay [1] has as its target T3, Relaxin receptor 1 (Homo sapiens) (UniProt Q9HBX9).
T3 sequence (whole entry): T2 sequence (Q9HBX9 whole entry)
Description: Activation of RXFP1 expressed in HEK-293T cells assessed as induction of cAMP accumulation after 6 hrs by beta galactosidase reporter gene assay. In kind it is functional, cell-based. For orientation: Cyclic AMP is a second messenger, typically raised through Gs and lowered through Gi signalling.

Relaxin-3 receptor 2, sequence (Q8TDU9 whole entry): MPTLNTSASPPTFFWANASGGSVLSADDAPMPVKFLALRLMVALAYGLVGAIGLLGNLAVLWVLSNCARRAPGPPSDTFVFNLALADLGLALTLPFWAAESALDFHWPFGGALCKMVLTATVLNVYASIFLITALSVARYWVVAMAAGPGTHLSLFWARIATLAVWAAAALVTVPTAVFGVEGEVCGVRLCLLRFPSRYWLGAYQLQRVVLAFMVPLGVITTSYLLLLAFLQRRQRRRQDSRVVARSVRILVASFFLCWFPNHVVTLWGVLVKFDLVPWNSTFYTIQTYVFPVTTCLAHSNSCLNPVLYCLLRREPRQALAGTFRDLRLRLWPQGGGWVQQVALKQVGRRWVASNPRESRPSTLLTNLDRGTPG

The term Ki denotes the equilibrium dissociation constant of an inhibitor or competing ligand from its target. The low end stands for tighter binding, the high end for weaker binding. As to H-RAAPYGVRLSGREFIRAVIFTSGGSRW-OH, the inhibition constant Ki on Relaxin-3 receptor 1 was 2950 nM. Same read-out and setting: then `CC[C@H](C)[C@H](NC(=O)[C@H](CS)NC(=O)[C@H](CCC(=O)O)NC(=O)[C@H](CCCN=C(N)N)NC(=O)CNC(=O)[C@H](CS)NC(=O)[C@H](CC(C)C)NC(=O)[C@H](CCCN=C(N)N)NC(=O)[C@@H](NC(=O)CNC(=O)[C@H](Cc1ccc(O)cc1)NC(=O)[C@@H]1CCCN1C(=O)[C@H](C)NC(=O)[C@H](C)NC(=O)[C@@H](N)CCCN=C(N)N)C(C)C)C(=O)N[C@@H](CCCN=C(N)N)C(=O)N[C@@H](C)C(=O)N[C@@H](CS)C(=O)N[C@H](C(=O)N[C@@H](Cc1ccccc1)C(=O)N[C@H](C(=O)N[C@@H](CS)C(=O)NCC(=O)NCC(=O)N[C@@H](CO)C(=O)N[C@@H](CCCN=C(N)N)C(=O)N[C@@H](Cc1c[nH]c2ccccc12)C(=O)O)[C@@H](C)O)[C@@H](C)CC` (H-RAAPYGVRLCGRECIRACIFTCGGSRW-OH), with greater than 10000 nM. By IC50 is commonly meant the point on the concentration scale where inhibition reaches its midpoint. Turning to `CC[C@H](C)[C@@H]1NC(=O)[C@H](Cc2ccccc2)NC(=O)[C@H](CCC(=O)O)NC(=O)[C@H](CCCN=C(N)N)NC(=O)CNC(=O)[C@@H](N)CSSC[C@H](N)C(=O)N[C@@H](CCCCN)C(=O)N[C@@H](Cc2c[nH]c3ccccc23)C(=O)NCC(=O)N[C@@H](C)C(=O)N[C@@H](CO)C(=O)N[C@@H](CCCCN)C(=O)N[C@@H](CO)C(=O)N[C@@H](CCC(=O)O)C(=O)N[C@@H]([C@@H](C)CC)C(=O)N[C@@H](CO)C(=O)N[C@@H](CO)C(=O)N[C@@H](CC(C)C)C(=O)N[C@H](C(=O)O)CSSC[C@@H](C(=O)NCC(=O)NCC(=O)N[C@@H](CO)C(=O)N[C@@H](CCCN=C(N)N)C(=O)N[C@@H](Cc2c[nH]c3ccccc23)C(=O)O)NC(=O)[C@H]([C@@H](C)O)NC(=O)[C@H](Cc2ccccc2)NC(=O)[C@H]([C@@H](C)CC)NC(=O)[C@H](C(C)C)NC(=O)[C@H](C)NC(=O)[C@H](CCCN=C(N)N)NC1=O`, the IC50 at Relaxin-3 receptor 2 is 3.47 nM. The compound also had a Ki at Relaxin receptor 1 greater than 10000 nM. On Relaxin-3 receptor 1, H-RAAPYGVRLSGREFIRAVIFRSGGSRW-OH gave a Ki of 741 nM. `CC[C@H](C)[C@@H]1NC(=O)[C@H](Cc2ccccc2)NC(=O)[C@H](CCC(=O)O)NC(=O)[C@H](CCCNC(=N)N)NC(=O)CNC(=O)[C@@H](NC(=O)[C@H](CC(C)C)NC(=O)[C@@H](N)CCCNC(=N)N)CSSC[C@H](N)C(=O)N[C@@H](CCCCN)C(=O)N[C@@H](Cc2c[nH]c3ccccc23)C(=O)NCC(=O)N[C@@H](C)C(=O)N[C@@H](CO)C(=O)N[C@@H](CCCCN)C(=O)N[C@@H](CO)C(=O)N[C@@H](CCC(=O)O)C(=O)N[C@@H]([C@@H](C)CC)C(=O)N[C@@H](CO)C(=O)N[C@@H](CO)C(=O)N[C@@H](CC(C)C)C(=O)N[C@H](C(=O)O)CSSC[C@@H](C(=O)NCC(=O)NCC(=O)N[C@@H](CO)C(=O)N[C@@H](CCCNC(=N)N)C(=O)N[C@@H](Cc2c[nH]c3ccccc23)C(=O)O)NC(=O)[C@H]([C@@H](C)O)NC(=O)[C@H](Cc2ccccc2)NC(=O)[C@H]([C@@H](C)CC)NC(=O)[C@H](C(C)C)NC(=O)[C@H](C)NC(=O)[C@H](CCCNC(=N)N)NC1=O`: in assay [1], the pIC50 entry is “inactive”. As to `CC[C@H](C)[C@H](NC(=O)[C@@H](NC(=O)[C@H](C)NC(=O)[C@H](CCCN=C(N)N)NC(=O)[C@H](CS)NC(=O)[C@H](Cc1ccccc1)NC(=O)[C@H](CCC(=O)O)NC(=O)[C@H](CCCN=C(N)N)NC(=O)CNC(=O)[C@H](CO)NC(=O)[C@H](CC(C)C)NC(=O)[C@H](CCCN=C(N)N)NC(=O)[C@@H](NC(=O)CNC(=O)[C@H](Cc1ccc(O)cc1)NC(=O)[C@@H]1CCCN1C(=O)[C@H](C)NC(=O)[C@H](C)NC(=O)[C@@H](N)CCCN=C(N)N)C(C)C)C(C)C)C(=O)N[C@@H](Cc1ccccc1)C(=O)N[C@H](C(=O)N[C@@H](CS)C(=O)NCC(=O)NCC(=O)N[C@@H](CO)C(=O)N[C@@H](CCCN=C(N)N)C(=O)N[C@@H](Cc1c[nH]c2ccccc12)C(=O)O)[C@@H](C)O` (H-RAAPYGVRLSGREFCRAVIFTCGGSRW-OH), the inhibitory constant (Ki) at Relaxin-3 receptor 1 is greater than 10000 nM. As for H-RAAPYGVRLSGREFIRAVIFTSRGSRW-OH, on Relaxin-3 receptor 1, the Ki is 2090 nM.

`CC[C@H](C)[C@@H]1NC(=O)[C@H](Cc2ccccc2)NC(=O)[C@H](CCC(=O)O)NC(=O)[C@H](CCCNC(=N)N)NC(=O)CNC(=O)[C@@H](NC(=O)[C@H](CC(C)C)NC(=O)[C@H](CCCNC(=N)N)NC(=O)[C@@H](NC(=O)CN)C(C)C)CSSC[C@H](N)C(=O)N[C@@H](CCCCN)C(=O)N[C@@H](Cc2c[nH]c3ccccc23)C(=O)NCC(=O)N[C@@H](C)C(=O)N[C@@H](CO)C(=O)N[C@@H](CCCCN)C(=O)N[C@@H](CO)C(=O)N[C@@H](CCC(=O)O)C(=O)N[C@@H]([C@@H](C)CC)C(=O)N[C@@H](CO)C(=O)N[C@@H](CO)C(=O)N[C@@H](CC(C)C)C(=O)N[C@H](C(=O)O)CSSC[C@@H](C(=O)NCC(=O)NCC(=O)N[C@@H](CO)C(=O)N[C@@H](CCCNC(=N)N)C(=O)N[C@@H](Cc2c[nH]c3ccccc23)C(=O)O)NC(=O)[C@H]([C@@H](C)O)NC(=O)[C@H](Cc2ccccc2)NC(=O)[C@H]([C@@H](C)CC)NC(=O)[C@H](C(C)C)NC(=O)[C@H](C)NC(=O)[C@H](CCCNC(=N)N)NC1=O`: the pIC50 entry in assay [1] is “inactive”. Also, the IC50 at Relaxin-3 receptor 2 is 14.1 nM. Also, the Ki at Relaxin receptor 1 is greater than 10000 nM. With H-RAAPYGVRLSGREFIRKVIFTSGGSRW-OH, the Ki at Relaxin-3 receptor 1 was greater than 10000 nM.

For the compound H-RAAPYGVRLSGREFIRAVIFTRGGSRW-OH, the Ki at Relaxin-3 receptor 1 was 3390 nM. In other words, the single-digit micromolar range. For the compound `CC[C@H](C)[C@@H]1NC(=O)[C@H](Cc2ccccc2)NC(=O)[C@H](CCC(=O)O)NC(=O)[C@H](CCCNC(=N)N)NC(=O)CNC(=O)[C@@H](N)CSSC[C@H](N)C(=O)N[C@@H](CCCCN)C(=O)N[C@@H](Cc2c[nH]c3ccccc23)C(=O)NCC(=O)N[C@@H](C)C(=O)N[C@@H](CO)C(=O)N[C@@H](CCCCN)C(=O)N[C@@H](CO)C(=O)N[C@@H](CCC(=O)O)C(=O)N[C@@H]([C@@H](C)CC)C(=O)N[C@@H](CO)C(=O)N[C@@H](CO)C(=O)N[C@@H](CC(C)C)C(=O)N[C@H](C(=O)O)CSSC[C@@H](C(=O)NCC(=O)NCC(=O)N[C@@H](CO)C(=O)N[C@@H](CCCNC(=N)N)C(=O)N[C@@H](Cc2c[nH]c3ccccc23)C(=O)O)NC(=O)[C@H]([C@@H](C)O)NC(=O)[C@H](Cc2ccccc2)NC(=O)[C@H]([C@@H](C)CC)NC(=O)[C@H](C(C)C)NC(=O)[C@H](C)NC(=O)[C@H](CCCNC(=N)N)NC1=O`, the pIC50 result in assay [1] was “inactive”. `CC[C@H](C)[C@H](NC(=O)[C@H](Cc1ccccc1)NC(=O)[C@H](CCC(=O)O)NC(=O)[C@H](CCCNC(=N)N)NC(=O)CNC(=O)[C@H](CO)NC(=O)[C@H](CC(C)C)NC(=O)[C@H](CCCNC(=N)N)NC(=O)[C@@H](NC(=O)CNC(=O)[C@H](CS)NC(=O)[C@@H]1CCCN1C(=O)[C@H](C)NC(=O)[C@H](C)NC(=O)[C@@H](N)CCCNC(=N)N)C(C)C)C(=O)N[C@@H](CCCNC(=N)N)C(=O)N[C@@H](C)C(=O)N[C@H](C(=O)N[C@H](C(=O)N[C@@H](Cc1ccccc1)C(=O)N[C@@H](CS)C(=O)N[C@@H](CO)C(=O)NCC(=O)NCC(=O)N[C@@H](CO)C(=O)N[C@@H](CCCNC(=N)N)C(=O)N[C@@H](Cc1c[nH]c2ccccc12)C(=O)O)[C@@H](C)CC)C(C)C` (H-RAAPCGVRLSGREFIRAVIFCSGGSRW-OH) gave a Ki on Relaxin-3 receptor 1 greater than 10000 nM. On Relaxin-3 receptor 1, H-RAAPYGVRLSGREFIRAVIFTSRGGSRW-OH had an inhibition constant (Ki) of 2570 nM.
